Assay results from publication PMC4365270 (Cancer Chemotherapy and Pharmacology, 2015).
“Also recorded” adds a separate entry of the source. Read-outs that look alike come from different tables or passages of the source.

Assay: Plasma pharmacokinetics of DEBIO1143 in patients (LC-MS/MS)
Assay type: in vivo, human
Conditions: for AUC(0-t) / Cmax / Tmax / AUC(0-inf) / half-life: human, plasma, oral; for Tmax: read-out: T max; for half-life: read-out: T 1/2 (converted)
Method: Pharmacokinetic samples were taken from all patients on day 1 (predose, 0.5, 1, 2, 3, 4, 6, 8, 12, 18 h postdose) and on day 5 (predose, 0.5, 1, 2, 3, 4, 6, 8 h postdose) of the first cycle. In addition, for exploratory PD analysis of IAP inhibition and activation of apoptosis, optional skin and tumor biopsies were taken from consenting patients on days 1 (predose) and 5 and blood samples on day 1 (predose, 1, 3, 6, 8, 12 h postdose), day 2 (predose), and day 5 (3 h postdose).
C max and t max were determined by direct assessment of the observed concentration versus time curves. The area under the curve until the last quantifiable concentration (AUC0−t) was estimated by a linear up/log down method if ≥3 values were available and extrapolated to infinity (AUCinf), if the extrapolated part was <30 %. The terminal elimination half-life (T 1/2) was calculated as the ratio of loge^2 to the apparent terminal phase rate constant (λ z), determined through unweighted linear regression analysis on ≥3 log-transformed concentrations on the linear portion of the terminal slope, excluding the peak concentration. In general, points maximizing R ^2 up to at least 0.9 were included for linear regression.
For the detection of cIAP-1 in paraffin-embedded human tissue, a validated immunohistochemical (IHC) assay was used. […] Plasma biomarkers were measured through commercial ELISAs. All laboratory analyses were performed by MPI Research, Inc. (PK) and Mosaic Laboratory, LLC (PD).

**Q.** Which “Dose proportionality of C max and AUC” value (doses 80 to 900 mg) does the source give for `CN[C@@H](C)C(=O)N[C@H]1CN(C(=O)CC(C)C)CC[C@H]2CC[C@@H](C(=O)NC(c3ccccc3)c3ccccc3)N2C1=O` [DEBIO1143] here?
**A.** increased proportionally; also recorded: proportional to doses ≥80 mg

**Q.** And the “Drug levels versus levels active in animal models” value (doses of ≥80 mg)?
**A.** exceeded levels that have demonstrated activity in animal models

**Q.** What about the AUC(0-t) (5 mg, day 1, n=1) of the same compound?
**A.** 19.6 ng·h/mL

**Q.** And the Cmax (5 mg, day 1, n=1)?
**A.** 6.69 ng/mL

**Q.** What about the Tmax (5 mg, day 1, n=1) of the same compound?
**A.** 3 h

**Q.** What about the AUC(0-t) (5 mg, day 5, n=1) of the same compound?
**A.** 43.4 ng·h/mL

**Q.** And the Cmax (5 mg, day 5, n=1)?
**A.** 18.5 ng/mL

**Q.** What about the Tmax (5 mg, day 5, n=1) of the same compound?
**A.** 1.6 h

**Q.** And the AUC(0-inf) (10 mg, day 1, n=1)?
**A.** 152 ng·h/mL

**Q.** What about the AUC(0-t) (10 mg, day 1, n=1) of the same compound?
**A.** 129 ng·h/mL

**Q.** What about the Cmax (10 mg, day 1, n=1) of the same compound?
**A.** 37.4 ng/mL

**Q.** What about the half-life (10 mg, day 1, n=1) of the same compound?
**A.** 2.46 h

**Q.** And the Tmax (10 mg, day 1, n=1)?
**A.** 1 h

**Q.** And the AUC(0-inf) (10 mg, day 5, n=1)?
**A.** 117 ng·h/mL

**Q.** And the AUC(0-t) (10 mg, day 5, n=1)?
**A.** 103 ng·h/mL

**Q.** What about the Cmax (10 mg, day 5, n=1) of the same compound?
**A.** 26.9 ng/mL

**Q.** What about the half-life (10 mg, day 5, n=1) of the same compound?
**A.** 2.53 h

**Q.** And the Tmax (10 mg, day 5, n=1)?
**A.** 3.5 h

**Q.** What about the AUC(0-inf) (20 mg, day 1, n=1) of the same compound?
**A.** 643 ng·h/mL

**Q.** What about the AUC(0-t) (20 mg, day 1, n=1) of the same compound?
**A.** 615 ng·h/mL

**Q.** And the Cmax (20 mg, day 1, n=1)?
**A.** 126 ng/mL

**Q.** And the half-life (20 mg, day 1, n=1)?
**A.** 5.44 h

**Q.** And the Tmax (20 mg, day 1, n=1)?
**A.** 1 h

**Q.** And the AUC(0-inf) (20 mg, day 5, n=1)?
**A.** 451 ng·h/mL

**Q.** And the AUC(0-t) (20 mg, day 5, n=1)?
**A.** 375 ng·h/mL

**Q.** What about the Cmax (20 mg, day 5, n=1) of the same compound?
**A.** 134 ng/mL

**Q.** And the half-life (20 mg, day 5, n=1)?
**A.** 3.37 h

**Q.** What about the Tmax (20 mg, day 5, n=1) of the same compound?
**A.** 0.5 h

**Q.** What about the AUC(0-inf) (40 mg, day 1, n=1) of the same compound?
**A.** 2300 ng·h/mL

**Q.** What about the AUC(0-t) (40 mg, day 1, n=1) of the same compound?
**A.** 2140 ng·h/mL

**Q.** And the Cmax (40 mg, day 1, n=1)?
**A.** 627 ng/mL

**Q.** And the half-life (40 mg, day 1, n=1)?
**A.** 6.38 h

**Q.** What about the Tmax (40 mg, day 1, n=1) of the same compound?
**A.** 1 h

**Q.** What about the AUC(0-t) (40 mg, day 5, n=1) of the same compound?
**A.** 1090 ng·h/mL

**Q.** What about the Cmax (40 mg, day 5, n=1) of the same compound?
**A.** 184 ng/mL

**Q.** What about the Tmax (40 mg, day 5, n=1) of the same compound?
**A.** 6.1 h

**Q.** What about the AUC(0-inf) (80 mg, day 1, n=3, mean (SD)) of the same compound?
**A.** 6660 ng·h/mL

**Q.** What about the AUC(0-t) (80 mg, day 1, n=3, mean (SD)) of the same compound?
**A.** 6390 ng·h/mL

**Q.** And the Cmax (80 mg, day 1, n=3, mean (SD))?
**A.** 1330 ng/mL

**Q.** And the half-life (80 mg, day 1, n=3, mean (SD))?
**A.** 5.22 h

**Q.** And the Tmax (80 mg, day 1, n=3, median (min–max))?
**A.** 2 h

**Q.** What about the AUC(0-inf) (80 mg, day 5, n=3, mean (SD)) of the same compound?
**A.** 5920 ng·h/mL

**Q.** And the AUC(0-t) (80 mg, day 5, n=3, mean (SD))?
**A.** 5020 ng·h/mL

**Q.** And the Cmax (80 mg, day 5, n=3, mean (SD))?
**A.** 1670 ng/mL

**Q.** And the half-life (80 mg, day 5, n=3, mean (SD))?
**A.** 2.69 h

**Q.** And the Tmax (80 mg, day 5, n=3, median (min–max))?
**A.** 2 h

**Q.** What about the AUC(0-inf) (120 mg, day 1, n=3, mean (SD)) of the same compound?
**A.** 7460 ng·h/mL

**Q.** What about the AUC(0-t) (120 mg, day 1, n=3, mean (SD)) of the same compound?
**A.** 6890 ng·h/mL

**Q.** And the Cmax (120 mg, day 1, n=3, mean (SD))?
**A.** 1650 ng/mL

**Q.** What about the half-life (120 mg, day 1, n=3, mean (SD)) of the same compound?
**A.** 6.39 h

**Q.** What about the Tmax (120 mg, day 1, n=3, median (min–max)) of the same compound?
**A.** 1 h

**Q.** What about the AUC(0-inf) (120 mg, day 5, n=3, mean (SD)) of the same compound?
**A.** 6770 ng·h/mL

**Q.** What about the AUC(0-t) (120 mg, day 5, n=3, mean (SD)) of the same compound?
**A.** 5430 ng·h/mL

**Q.** What about the Cmax (120 mg, day 5, n=3, mean (SD)) of the same compound?
**A.** 1190 ng/mL

**Q.** What about the half-life (120 mg, day 5, n=3, mean (SD)) of the same compound?
**A.** 2.61 h

**Q.** What about the Tmax (120 mg, day 5, n=3, median (min–max)) of the same compound?
**A.** 2 h

**Q.** What about the AUC(0-inf) (180 mg, day 1, n=7, mean (SD)) of the same compound?
**A.** 11400 ng·h/mL
